From publication PMC11400633, “Peptides inhibiting the assembly of monomeric human L‐lactate dehydrogenase into catalytically active homotetramer decrease the synthesis of lactate in cultured cells” (Protein Science : A Publication of the Protein Society, 2024)
*1 amine or outer side, *2 acyl side, *3 side chain or, on linkers, in order; H or OH if unused. [ ]: non-standard residue; d: D form. The star is where a group is joined. d(βAsp) = O=C(O)[C@@H](CC(=O)[*:2])N[*:1]; βAsp = O=C(O)[C@H](CC(=O)[*:2])N[*:1]; OBn = c1ccc(CO*)cc1

Assays:
monomeric human LDH‐A [1] = target: T1, monomeric human LDH‐A (Homo sapiens, UniProt P00338); assay: Inhibition by peptides of LDH-A activity gained on assembly of monomeric LDH-A into tetramer; type: biochemical; details: 80 μM peptide incubated 5 min with 6.2 nM monomeric LDH-A, 10 mM Tris-HCl + 10 mM BisTris pH 7.5, started with 125 μM β-NADH and 500 μM pyruvate, 25°C, A340, vs control with 1% DMSO, mean ± SD, n = 3
T1 construct: made in house; host or cells: E. coli BL21(DE3), pET9a (NdeI/BamHI)
Experimental: In particular, all the peptides were tested at 80 μM (final concentration), and the LDH activity detected in their presence was compared with the catalytic action observed with control samples devoid of any peptide. First, we decided to assay the octameric peptide TH1, the primary structure of which ([…]) is identical to the LDH‐A region spanning residues 295–302. […] Indeed, the catalytic action exerted by 6 nM tetrameric LDH‐A (in 10 mM Tris–HCl, pH 7.5, containing 150 mM NaCl) was determined as equal to 433 ± 11 and 452 ± 19 nM/s in the absence and in the presence of 80 μM TH1 octapeptide, respectively. Overall, this insensitivity along with the significant effect elicited by TH1 on monomeric LDH‐A indicate that the octapeptide inhibits the assembly of LDH‐A monomers into the corresponding, catalytically active, tetramer. To dissect the inhibition triggered by TH1 on monomeric LDH‐A, we decided to evaluate: (i) whether or not the two halves of the octapeptide, that is, GQNG and ISDL, are equally competent in inhibiting LDH‐A; (ii) the action of linear and cyclic peptides, containing or not D amino acids; and (iii) the effect, if any, triggered by the presence of protecting groups in the peptides to be assayed. It should be noted that to allow the cyclization of tetrapeptide GQNG while maintaining a terminal carboxylic group, the sequence was modified to GQND, while for the cyclization of ISDL while maintaining a terminal amino group, the sequence was modified into KSDL (Table 1).
FIGURE 8 Inhibition exerted by linear and cyclic peptides on LDH‐A activity detected in vitro. […] The gray bars (in “a” and “d”) represent the activity observed in the presence of the same volume of DMSO (1%, v/v) carried to the assay mixtures by the peptides to be tested. (a–c) The effect, if any, of tetrameric peptides featuring the GQND primary structure (see also Table 1) on LDH‐A activity is shown. The inhibition exerted by the octameric peptide TH1 is also reported in “a.” The enzyme activity observed in the presence of linear or cyclic peptides is shown in “b” and “c”, respectively. (d) Extent of LDH‐A activity detected in the presence of linear or cyclic tetrapeptides featuring the KSDL primary structure. Error bars represent SD (n = 3). The experimental observations were compared by Student's t‐test. The ***, **, and * symbols denote p values lower than 0.001, 0.01, and […], respectively. (e) Simulation of the association between the TH2 peptide and monomeric LDH‐A. Predicted interactions between the cyclopeptide c[GQN‐isoD] (TH2) and the N‐terminal sequence Y^9[…]^19, as simulated by molecular dynamics in a box of explicit TIP3P water molecules; gray and red dotted lines represent hydrogen bonds and salt bridges, respectively.
All the assays were performed at 25°C using a Cary 300 Bio spectrophotometer.

MCF7 cells = assay: Colorimetric assay of lactate secretion by MCF7 cells (expressing LDH-A); type: cell-based, human
Description: Having identified peptides able to interfere with the assembly of monomeric LDH‐A into catalytically active tetramer, we considered of interest to test the action of peptides against LDH‐A expressed in human cell lines. In particular, we analyzed the lactate secreted by cultured human cells exposed or not to the peptides better performing as inhibitors of LDH‐A in vitro, that is, TH1, TH2, and TH16. Moreover, we used two different cell lines exclusively expressing LDH‐A or LDH‐B, that is, MCF7 and BxPC3, respectively. In MCF7 cells, the [mRNALDH‐A]/[mRNALDH‐B] ratio is indeed equal to ca. 150 (Figure 9a), whereas in BxPC3 cells the messenger coding for LDH‐A was not detected (Figure 9a). Therefore, by comparing the decrease, if any, of the lactate concentration secreted by these two cell lines the selectivity of peptides acting against LDH‐A or LDH‐B can be conveniently estimated. When the MCF7 cell line is considered, the linear TH16 and the cyclic TH2 tetrapeptide performed equally, being both responsible for a concentration of secreted lactate 20% lower than that detected in their absence (Figure 9b). […] Accordingly, it seems likely that lipofectamine is effective in assisting the penetration of the TH16 and TH2 peptides into cells, with this action of lipofectamine being much weaker when dealing with a larger molecule, that is, an octapeptide.
To evaluate the competence of peptides in inhibiting the action of LDH‐A in cultured cells, two human cell cultures were used: MCF7 and BxPC3, isolated from breast and pancreatic adenocarcinoma, respectively. Cultures were grown in DMEM (MCF7) or RPMI medium (BxPC3), supplemented with 100 U/ml penicillin/streptomycin, 2 mM glutamine and 10% (v/v) FBS. All the components of the media used for cell culture were obtained from Merck‐Millipore.
The competence of peptides in inhibiting LDH in cultured cells was tested by assessing the concentration of lactate released by MCF7 and BxPC3 cell cultures. To this aim, cells were seeded in duplicate in 24‐wells plates (2 × 10^5/well) and let to adhere overnight; the culture medium was then replaced by Krebs‐Ringer buffer (300 μl/well). Stock solutions of peptides (8 mM in DMSO) were diluted in Krebs‐Ringer buffer to a final concentration of 640 μM and mixed with an equal volume of 4% (v/v, in Krebs‐Ringer buffer) Lipofectamine 2000 (Invitrogen). The final solution was thoroughly mixed, kept for 25 min at room temperature, and finally 100 μl were added to each plate well, obtaining a final peptide concentration equal to 80 μM. The concentration of lactate released in the Krebs–Ringer buffer was determined after 4 h of incubation at 37°C, using the colorimetric assay previously reported (Rossi et al., [2023]). Each experiment was performed in triplicate and included control samples consisting of untreated cell cultures exposed to the same final concentration of DMSO (1%, v/v) and Lipofectamine (0.5%, v/v) to which were exposed the samples treated with peptides.

BxPC3 cells = assay: Colorimetric assay of lactate secretion by BxPC3 cells (expressing LDH-B); type: cell-based, human; details: BxPC3, 80 μM peptide with Lipofectamine 2000 (0.5% v/v), 1% DMSO, Krebs-Ringer buffer, 4 h, 37°C, n = 3
Description: Having identified peptides able to interfere with the assembly of monomeric LDH‐A into catalytically active tetramer, we considered of interest to test the action of peptides against LDH‐A expressed in human cell lines. In particular, we analyzed the lactate secreted by cultured human cells exposed or not to the peptides better performing as inhibitors of LDH‐A in vitro, that is, TH1, TH2, and TH16. Moreover, we used two different cell lines exclusively expressing LDH‐A or LDH‐B, that is, MCF7 and BxPC3, respectively. In MCF7 cells, the [mRNALDH‐A]/[mRNALDH‐B] ratio is indeed equal to ca. 150 (Figure 9a), whereas in BxPC3 cells the messenger coding for LDH‐A was not detected (Figure 9a). Therefore, by comparing the decrease, if any, of the lactate concentration secreted by these two cell lines the selectivity of peptides acting against LDH‐A or LDH‐B can be conveniently estimated. When the MCF7 cell line is considered, the linear TH16 and the cyclic TH2 tetrapeptide performed equally, being both responsible for a concentration of secreted lactate 20% lower than that detected in their absence (Figure 9b). […] It should indeed be noted that the assays with cells were performed in the presence of lipofectamine (see Section 5). […] Accordingly, it seems likely that lipofectamine is effective in assisting the penetration of the TH16 and TH2 peptides into cells, with this action of lipofectamine being much weaker when dealing with a larger molecule, that is, an octapeptide.
To evaluate the competence of peptides in inhibiting the action of LDH‐A in cultured cells, two human cell cultures were used: MCF7 and BxPC3, isolated from breast and pancreatic adenocarcinoma, respectively. […]
The competence of peptides in inhibiting LDH in cultured cells was tested by assessing the concentration of lactate released by MCF7 and BxPC3 cell cultures. […] The concentration of lactate released in the Krebs–Ringer buffer was determined after 4 h of incubation at 37°C, using the colorimetric assay previously reported (Rossi et al., [2023]). […]

tetrameric LDH‐A = target: T2, tetrameric LDH‐A (Homo sapiens, UniProt P00338); assay: Steady-state kinetics of pyruvate reduction by tetrameric LDH-A; type: biochemical; details: variable β-NADH, 500 μM pyruvate, 1.9 nM tetramer, pH 7.5, 25°C
T2 construct: made in house; host or cells: E. coli BL21(DE3), pET9a (NdeI/BamHI)
Experimental: (§1) To further characterize the catalytic action of monomeric LDH-A exposed to β-NADH and pyruvate, and therefore assembled into tetramer (cf. […] In addition, the kinetics of pyruvate reduction catalyzed by tetrameric LDH-A was assayed under the same conditions used for the monomeric enzyme. Structurally and functionally speaking, the availability of monomeric LDH-A does indeed provide an unprecedented and quite interesting tool to perform quantitative tests of the assembly of monomers into the corresponding catalytically active tetramer. […] In addition to this, the enzyme kinetic parameters were also determined testing reaction velocity as a function of β-NADH concentration, in the presence of 500 μM pyruvate. […] The continuous lines represent the best fit of the Michaelis-Menten equation to the experimental observations. […] The continuous lines represent the best fit of the Michaelis-Menten equation to the experimental observations. (c) Kinetic parameters determined by performing activity assays using monomeric or tetrameric LDH-A, at the indicated final concentrations. Under conditions of variable pyruvate concentration, β-NADH was always used at 125 μM. When reaction mixtures contained variable concentrations of the redox cofactor, pyruvate was invariably added at 500 μM. All the assays were performed at pH 7.5 (Tris-BisTris, 10 mM each.

monomeric human LDH‐A [2] = target: T1, monomeric human LDH‐A; assay: Steady-state kinetics of pyruvate reduction by monomeric LDH-A (assembled monomers); type: biochemical; details: variable β-NADH, 500 μM pyruvate, 7.6 nM monomer, pH 7.5, 25°C
Experimental: as §1

| Substance | Inhibition (%) of LDH‐A activity (monomeric human LDH‐A [1]) | other results |
| --- | --- | --- |
| c[Gly‐Gln‐Asn‐D‐isoAsp(OBn)] (head to tail) [TH11] | 8 ± 4% |  |
| c[Gly‐Gln‐Asn‐isoAsp(OBn)] (head to tail) [TH10] | 6 ± 3% |  |
| c[isoLys‐Ser‐Asp‐D‐Leu] (sidechain bridge or staple) [TH5] | 7 ± 3% |  |
| c[isoLys‐Ser‐Asp‐Leu] (sidechain bridge or staple) [TH4] | 16 ± 3% |  |
| cyclo(GQND(OBn)) (SMILES NC(=O)CC[C@@H]1NC(=O)CNC(=O)[C@H](CC(=O)OCc2ccccc2)NC(=O)[C@H](CC(N)=O)NC1=O) [TH15] | 9 ± 2% |  |
| cyclo(GQN[d(βAsp)]) (SMILES NC(=O)CC[C@@H]1NC(=O)CNC(=O)C[C@H](C(=O)O)NC(=O)[C@H](CC(N)=O)NC1=O) [TH3] | 26 ± 1% |  |
| cyclo(GQN[βAsp]) (SMILES NC(=O)CC[C@@H]1NC(=O)CNC(=O)C[C@@H](C(=O)O)NC(=O)[C@H](CC(N)=O)NC1=O) [TH2] | 31 ± 3% | decrease of the concentration of secreted lactate (MCF7 cells; MCF7, 80 μM peptide with Lipofectamine 2000 (0.5% v/v), 1% DMSO, Krebs-Ringer buffer, 4 h, 37°C, colorimetric, n = 3, vs cells without peptide): 20%; effect on lactate production in the absence of lipofectamine (MCF7 cells; MCF7, peptide without lipofectamine): negligible and not significant effects; effect on lactate secretion (BxPC3 cells): no significant differences |
| β‐NADH |  | K m for β‐NADH, tetrameric LDH‐A (tetrameric LDH‐A): 9.0 ± 0.6 µM; K m for β‐NADH, monomeric LDH‐A (assembled monomers) (monomeric human LDH‐A [2]): 7.7 ± 1.1 µM |
